Read-outs that look alike come from different tables or passages of the source.
Key:
Monochoria vaginalis [1] = experiment: Greenhouse transplant rice test, MV; type: in vivo; details: Pontederia vaginalis, about 3 WAT, read-out: Percent Inhibition, MV
Excerpt: (§1) The test procedure used in this greenhouse test is as follows: Ray silt loam top soil containing about 0.05% by weight of krillium and sifted through a […] screen is fumigated about 5-10 days prior to use. Pots are then filled with said Ray silt loam soil to a level to allow for a 1 in. (2.54 cm) flooding depth. Rice plants (Bluebelle) of 2 to 3 weeks age are transplanted to the pots and bulbs or seeds of the test weeds also planted in the pots. The pots are then flooded and the test chemical applied to the surface of the flood water. The flood water is reduced to allow for germination of the Echinochloa crus-galli (barnyardgrass) seed and subsequently reflooded and maintained in that condition. Observations of percent inhibition using a scale of 0-100% are made about 3 weeks after transplant (WAT).
(§2) The test data in Table III for all compounds was obtained under identical test conditions. The weeds used in the tests herein have the following abbreviations in the tables: Echinochloa crus-galli (EC), Monochloria vaginalis (MV), Cyperus Serotinus (CS), Eleocharis Kuroguwai (EK) and Sagittaria trifolia (ST).

Eleocharis kuroguwai = experiment: Greenhouse transplant rice test, EK; type: in vivo; details: about 3 WAT, read-out: Percent Inhibition, EK
Excerpt: as §1, §2

Rice = experiment: Greenhouse transplant rice test, rice injury; type: in vivo, Rice (Bluebelle); details: Oryza sativa, about 3 WAT, read-out: Percent Inhibition, Rice
Excerpt: as §1, §2

Cyperus serotinus [2] = experiment: Field transplant rice test, applied 9 DAT, CS; type: in vivo; details: for inhibition at 375 g/ha / inhibition at 750 g/ha / inhibition at 1500 g/ha / inhibition at 3000 g/ha: Cyperus serotinus, 216 h, read-out: Percent Inhibition, CS; for inhibition at 375 g/ha: 0.375 Kg/Ha; for inhibition at 750 g/ha: 0.75 Kg/Ha; for inhibition at 1500 g/ha: 1.5 Kg/Ha; for inhibition at 3000 g/ha: 3.0 Kg/Ha
Excerpt: In the discussion of data below, occasional reference is made to herbicide application rates symbolized as "GR15 " and "GR85 "; these rates are given in kilograms per hectare (kg/ha) which are convertible into pounds per acre (lbs/A) by dividing the kg/ha rate by 1.12.
A further guide to the effectiveness of a chemical as a selective herbicide is the "selectivity factor" ("SF") for a herbicide in given crops and weeds. The selectivity factor is a measure of the relative degree of crop safety and weed injury and is expressed in terms of the GR15 /GR85 ratio, i.e., the GR15 rate for the crop divided by the GR85 rate for the weed, both rates in kg/ha (lb/A.)
as §2
(§3) In further comparative tests, a preferred compound of this invention (Example 1) was tested in the field with prior art Compounds A-D. These tests were conducted under conditions reflecting herbicide application times generally favorable to all herbicides in the test. The timing of application of herbicides to transplant rice is very important, whether, as in some instances, prior to transplanting the rice; in other instances, at the time of transplanting or else after transplanting. Application times are conventionally referred to as "days before transplant" (DBT) or "days after transplant" ("DAT"). The field test data in Table IV was obtained from a test in which the herbicides were applied at the time of transplant, i.e., "0 DAT", with observations being made weekly up to six weeks after transplant ("WAT") beginning at two weeks after transplant; for illustrative and representative purposes, only the early, middle and late period observations, i.e., 2 WAT, 4 WAT and 6 WAT, are shown in Table IV. The data in Table IV is for rates of application common to all herbicides in the test, i.e., from 3.0 kg/ha (2.67 lb/A) down to 0.375 kg/ha (0.34 lb/A). All herbicides were applied at their actual or expected use rates, i.e., as granules containing 2.5% by weight herbicide for the compound of Example 1, Compounds B, C and D and 5.0% by weight for Compound A.
In Table V are presented field data showing the relative performance of the compound of Example 1 and Compounds A-D applied 9 DAT, with observations being made weekly from 3 WAT to 7 WAT; again, for illustrative and representative purposes, only the early, middle and late period observations are reported in Table V, the herbicide rates and concentrations of active ingredients the same as is shown in Table IV.

Monochoria vaginalis [3] = experiment: Field transplant rice test, applied 0 DAT, MV; type: in vivo; details: Pontederia vaginalis, 0 h, read-out: Percent Inhibition, MV; for inhibition at 375 g/ha: 0.375 Kg/Ha; for inhibition at 750 g/ha: 0.75 Kg/Ha; for inhibition at 1500 g/ha: 1.5 Kg/Ha; for inhibition at 3000 g/ha: 3.0 Kg/Ha
Procedure: as §2, §3

Sagittaria trifolia = experiment: Field transplant rice test, applied 0 DAT, ST; type: in vivo; details: 0 h, read-out: Percent Inhibition, ST; for inhibition at 375 g/ha: 0.375 Kg/Ha; for inhibition at 750 g/ha: 0.75 Kg/Ha; for inhibition at 1500 g/ha: 1.5 Kg/Ha; for inhibition at 3000 g/ha: 3.0 Kg/Ha
Procedure: as §2, §3

Cyperus serotinus [4] = experiment: Field transplant rice test, applied 0 DAT, CS; type: in vivo; details: 0 h, read-out: Percent Inhibition, CS; for inhibition at 375 g/ha: 0.375 Kg/Ha; for inhibition at 750 g/ha: 0.75 Kg/Ha; for inhibition at 1500 g/ha: 1.5 Kg/Ha; for inhibition at 3000 g/ha: 3.0 Kg/Ha
Procedure: as §2, §3

SMILES: CCCCOc1cccc(CC)c1N(CC)C(=O)CCl [Example 2, N-ethyl-2'-n-butoxy-6'-ethyl-2-chloroacetanilide]
- inhibition at 280 g/ha (Monochoria vaginalis [1]; 0.28 Kg/Ha): 100%
- inhibition at 560 g/ha (Monochoria vaginalis [1]; 0.56 Kg/Ha): 100%
- inhibition at 1120 g/ha (Monochoria vaginalis [1]; 1.12 Kg/Ha): 100%
- inhibition at 2240 g/ha (Monochoria vaginalis [1]; 2.24 Kg/Ha): 100%
- inhibition at 280 g/ha (Eleocharis kuroguwai; 0.28 Kg/Ha): 100%
- inhibition at 560 g/ha (Eleocharis kuroguwai; 0.56 Kg/Ha): 100%
- inhibition at 1120 g/ha (Eleocharis kuroguwai; 1.12 Kg/Ha): 100%
- inhibition at 2240 g/ha (Eleocharis kuroguwai; 2.24 Kg/Ha): 100%
- inhibition at 280 g/ha (Rice; 0.28 Kg/Ha): 0%
- inhibition at 560 g/ha (Rice; 0.56 Kg/Ha): 10%
- inhibition at 1120 g/ha (Rice; 1.12 Kg/Ha): 15%
- inhibition at 2240 g/ha (Rice; 2.24 Kg/Ha): 25%

SMILES: CCCOCCN(C(=O)CCl)c1c(CC)cccc1CC [Compound D, 2',6'-diethyl-N-(n-propoxyethyl)-2-chloroacetanilide]
- inhibition at 375 g/ha (Cyperus serotinus [2]; 3 WAT): 92%
- inhibition at 375 g/ha (Cyperus serotinus [2]; 5 WAT): 87%
- inhibition at 375 g/ha (Cyperus serotinus [2]; 7 WAT): 67%
- inhibition at 750 g/ha (Cyperus serotinus [2]; 3 WAT): 77%
- inhibition at 750 g/ha (Cyperus serotinus [2]; 5 WAT): 67%
- inhibition at 750 g/ha (Cyperus serotinus [2]; 7 WAT): 33%
- inhibition at 1500 g/ha (Cyperus serotinus [2]; 3 WAT): 77%
- inhibition at 1500 g/ha (Cyperus serotinus [2]; 5 WAT): 77%
- inhibition at 1500 g/ha (Cyperus serotinus [2]; 7 WAT): 100%
- inhibition at 3000 g/ha (Cyperus serotinus [2]; 3 WAT): 90%
- inhibition at 3000 g/ha (Cyperus serotinus [2]; 5 WAT): 100%
- inhibition at 3000 g/ha (Cyperus serotinus [2]; 7 WAT): 100%
- selectivity factor (GR15/GR85), CS in transplant rice (Cyperus serotinus [2]; between 3 WAT and 7 WAT): 1
- inhibition at 375 g/ha (Monochoria vaginalis [3]; 2 WAT): 90%
- inhibition at 375 g/ha (Monochoria vaginalis [3]; 4 WAT): 95%
- inhibition at 375 g/ha (Monochoria vaginalis [3]; 6 WAT): 83%
- inhibition at 750 g/ha (Monochoria vaginalis [3]; 2 WAT): 100%
- inhibition at 750 g/ha (Monochoria vaginalis [3]; 4 WAT): 99%
- inhibition at 750 g/ha (Monochoria vaginalis [3]; 6 WAT): 100%
- inhibition at 1500 g/ha (Monochoria vaginalis [3]; 2 WAT): 98%
- inhibition at 1500 g/ha (Monochoria vaginalis [3]; 4 WAT): 100%
- inhibition at 1500 g/ha (Monochoria vaginalis [3]; 6 WAT): 100%
- inhibition at 3000 g/ha (Monochoria vaginalis [3]; 2 WAT): 100%
- inhibition at 3000 g/ha (Monochoria vaginalis [3]; 4 WAT): 98%
- inhibition at 3000 g/ha (Monochoria vaginalis [3]; 6 WAT): 98%
- inhibition at 375 g/ha (Sagittaria trifolia; 2 WAT): 20%
- inhibition at 375 g/ha (Sagittaria trifolia; 4 WAT): 2%
- inhibition at 375 g/ha (Sagittaria trifolia; 6 WAT): 0%
- inhibition at 750 g/ha (Sagittaria trifolia; 2 WAT): 28%
- inhibition at 750 g/ha (Sagittaria trifolia; 4 WAT): 10%
- inhibition at 750 g/ha (Sagittaria trifolia; 6 WAT): 7%
- inhibition at 1500 g/ha (Sagittaria trifolia; 2 WAT): 23%
- inhibition at 1500 g/ha (Sagittaria trifolia; 4 WAT): 27%
- inhibition at 1500 g/ha (Sagittaria trifolia; 6 WAT): 22%
- inhibition at 3000 g/ha (Sagittaria trifolia; 2 WAT): 22%
- inhibition at 3000 g/ha (Sagittaria trifolia; 4 WAT): 28%
- inhibition at 3000 g/ha (Sagittaria trifolia; 6 WAT): 18%
- inhibition at 375 g/ha (Cyperus serotinus [4]; 2 WAT): 82%
- inhibition at 375 g/ha (Cyperus serotinus [4]; 4 WAT): 65%
- inhibition at 375 g/ha (Cyperus serotinus [4]; 6 WAT): 33%
- inhibition at 750 g/ha (Cyperus serotinus [4]; 2 WAT): 73%
- inhibition at 750 g/ha (Cyperus serotinus [4]; 4 WAT): 77%
- inhibition at 750 g/ha (Cyperus serotinus [4]; 6 WAT): 70%
- inhibition at 1500 g/ha (Cyperus serotinus [4]; 2 WAT): 92%
- inhibition at 1500 g/ha (Cyperus serotinus [4]; 4 WAT): 93%
- inhibition at 1500 g/ha (Cyperus serotinus [4]; 6 WAT): 93%
- inhibition at 3000 g/ha (Cyperus serotinus [4]; 2 WAT): 67%
- inhibition at 3000 g/ha (Cyperus serotinus [4]; 4 WAT): 65%
- inhibition at 3000 g/ha (Cyperus serotinus [4]; 6 WAT): 60%
